# Measurements as given in ChEMBL document CHEMBL1201862, “PubChem BioAssay data set” (2004).
# Activity calls are given as the source filed them. For most assays here, no stated cut-off is given here; in the data, actives have a measured EC50 and inactives only a lower limit.
# How the values were obtained:
# [1] = molecular target: T1, Polyadenylate-binding protein 1 (Homo sapiens, UniProt P11940); assay: MLLE domain peptide-binding blockers, IC50 – biochemical, fluorescence polarization, FITC-PAM2 peptide, dose response (AID 602259); type: functional; conditions: read-out: IC50_Mean
# T1 sequence (P11940 whole entry, the tested form may be a part): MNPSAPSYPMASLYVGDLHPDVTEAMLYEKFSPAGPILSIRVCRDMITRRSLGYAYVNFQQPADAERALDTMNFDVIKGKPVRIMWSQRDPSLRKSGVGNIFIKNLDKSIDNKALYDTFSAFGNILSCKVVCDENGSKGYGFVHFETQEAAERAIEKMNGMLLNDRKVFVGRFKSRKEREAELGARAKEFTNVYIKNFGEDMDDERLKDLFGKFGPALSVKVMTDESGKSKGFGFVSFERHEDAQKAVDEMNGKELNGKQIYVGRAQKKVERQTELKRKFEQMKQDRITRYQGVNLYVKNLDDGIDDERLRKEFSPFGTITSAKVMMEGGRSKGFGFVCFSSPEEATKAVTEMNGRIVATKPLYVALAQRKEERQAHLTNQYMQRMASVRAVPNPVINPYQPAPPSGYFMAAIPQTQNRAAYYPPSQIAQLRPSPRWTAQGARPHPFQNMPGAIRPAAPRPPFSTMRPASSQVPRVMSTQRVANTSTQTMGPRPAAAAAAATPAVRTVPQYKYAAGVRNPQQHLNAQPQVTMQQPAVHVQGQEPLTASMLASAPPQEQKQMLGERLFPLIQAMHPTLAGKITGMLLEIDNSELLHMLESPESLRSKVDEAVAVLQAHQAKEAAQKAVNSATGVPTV
# [2] = molecular target: T1, Polyadenylate-binding protein 1; assay: MLLE binding blockers, Cy5 peptide tracer – biochemical, fluorescence polarization, Cy5-PAM2 peptide, secondary, miRNA deadenylation inhibitor project, dose response (AID 602260); type: functional; conditions: read-out: IC50_Mean
# [3] = molecular target: T2, Heat shock factor protein 1 (Mus musculus, UniProt P38532); assay: decrease of HSF1-responsive luciferase luminescence – cell-based, NIH3T3, dose retest, confirmation (AID 2382); type: functional;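 further: NIH3T3 fibroblasts with HSF1-driven luciferase reporter stressed by proteasome inhibitor MG132; luminescence from HSF1-driven luciferase expression after 8 hours of MG132 stress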
# T2 sequence (P38532 whole entry): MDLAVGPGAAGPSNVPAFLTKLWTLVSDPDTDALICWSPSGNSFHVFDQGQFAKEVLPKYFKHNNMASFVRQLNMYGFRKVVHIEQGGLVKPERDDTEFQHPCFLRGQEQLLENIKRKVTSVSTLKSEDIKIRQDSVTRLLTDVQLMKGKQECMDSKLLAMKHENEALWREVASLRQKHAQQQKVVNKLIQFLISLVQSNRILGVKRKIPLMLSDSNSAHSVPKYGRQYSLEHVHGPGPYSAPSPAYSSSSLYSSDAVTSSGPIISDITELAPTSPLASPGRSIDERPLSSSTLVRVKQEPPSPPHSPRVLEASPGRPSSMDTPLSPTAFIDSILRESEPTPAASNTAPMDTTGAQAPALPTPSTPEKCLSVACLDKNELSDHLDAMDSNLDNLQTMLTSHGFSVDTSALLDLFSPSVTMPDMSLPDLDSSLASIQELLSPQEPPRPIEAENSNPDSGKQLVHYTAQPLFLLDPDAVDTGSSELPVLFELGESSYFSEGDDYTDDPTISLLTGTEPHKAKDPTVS
# [4] = molecular target: Luciferin 4-monooxygenase (Photinus pyralis, UniProt P08659); assay: inhibition of purified Photinus pyralis luciferase – biochemical, luminescence, dose response (AID 1891)
# Sequence of Luciferin 4-monooxygenase (P08659 whole entry): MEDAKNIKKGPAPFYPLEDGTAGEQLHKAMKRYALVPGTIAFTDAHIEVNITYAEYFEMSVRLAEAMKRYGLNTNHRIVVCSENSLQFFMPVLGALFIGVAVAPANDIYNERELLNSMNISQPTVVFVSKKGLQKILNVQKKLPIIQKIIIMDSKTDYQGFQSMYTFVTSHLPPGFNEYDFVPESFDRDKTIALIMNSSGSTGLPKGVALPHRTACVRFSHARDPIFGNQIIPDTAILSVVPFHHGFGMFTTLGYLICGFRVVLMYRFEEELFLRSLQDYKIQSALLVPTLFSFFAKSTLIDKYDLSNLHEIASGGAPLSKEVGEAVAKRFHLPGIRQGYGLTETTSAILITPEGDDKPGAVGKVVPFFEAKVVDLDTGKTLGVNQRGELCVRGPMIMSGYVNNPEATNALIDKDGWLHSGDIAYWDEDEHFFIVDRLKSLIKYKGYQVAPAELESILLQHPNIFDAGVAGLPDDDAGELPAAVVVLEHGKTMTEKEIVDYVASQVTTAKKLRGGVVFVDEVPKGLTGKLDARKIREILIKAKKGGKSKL
# [5] = Luminescence Cell-Based Dose Confirmation HTS to Identify Inhibitors of Platelet Dense Granule Release. [Related pubchem assays: 1663 (Primary HTS), 1678 (Summary of Project)]; type: functional
# Paired box protein Pax-8 = Paired box protein Pax-8 (Homo sapiens, UniProt Q06710); assay: PAX8 transcriptional activity inhibition in RMG-I – RMG-I cells, luciferase, cherry-pick, dose response (AID 687027); type: functional, cell-based;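 further: luciferase reporter driven by Pax8 target thyroperoxidase promoter measured by SteadyGlo luminescence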
# Sequence of Paired box protein Pax-8 (Q06710 whole entry): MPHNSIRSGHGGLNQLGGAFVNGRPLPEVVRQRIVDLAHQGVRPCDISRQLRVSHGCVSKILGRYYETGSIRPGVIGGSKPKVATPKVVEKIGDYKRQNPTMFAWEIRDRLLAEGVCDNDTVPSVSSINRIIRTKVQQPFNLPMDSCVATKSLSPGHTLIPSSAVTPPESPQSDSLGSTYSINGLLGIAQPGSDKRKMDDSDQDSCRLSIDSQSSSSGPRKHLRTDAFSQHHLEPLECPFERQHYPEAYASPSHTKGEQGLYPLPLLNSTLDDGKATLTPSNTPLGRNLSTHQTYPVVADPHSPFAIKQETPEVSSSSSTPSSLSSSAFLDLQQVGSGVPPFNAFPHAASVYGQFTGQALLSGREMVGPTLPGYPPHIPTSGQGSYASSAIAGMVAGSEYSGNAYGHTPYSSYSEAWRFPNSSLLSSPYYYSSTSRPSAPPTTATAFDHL
# [6] = Luminescence Cell-Based Dose Confirmation HTS to Identify Activators of 5'UTR Stem-Loop Driven Alpha-Synuclein mRNA Translation in H4 Neuroglioblastoma Cells. [Related pubchem assays: 1829 (Project Summary), 1814 (Primary HTS)]; type: functional
# [7] = Luminescence Cell-Based Dose Response HTS to Identify Activators of Luciferase Translation or Activity in H4 […] Cells. [Related pubchem assays: 1829 (Project Summary), 1814 (Primary HTS)]; type: functional
# H4 = assay: Luminescence Cell-Based Dose Response HTS to Identify Activators of 5'UTR Stem-Loop Driven Prion Protein mRNA Translation in H4 Neuroglioblastoma Cells. [Related pubchem assays: 1829 (Project Summary), 1814 (Primary HTS)]; type: functional; conditions: Homo sapiens
# [8] = test system: Streptococcus sp. 'group A'; assay: Streptococcus pyogenes SK(-)GAS viability under kanamycin – luminescence, BacTiterGlo, confirmation, counter-screen for streptokinase expression inhibitor project, dose response (AID 1900); type: functional, organism-based
# Streptococcus = assay: GAS UMAA2166 growth inhibition – luminescence, BacTiterGlo, counter-screen for streptokinase expression inhibitor project, dose response (AID 1915); type: functional, organism-based;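 further: potency for reduction of bacterial viability or growth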
# Streptokinase A = molecular target: T3, Streptokinase A (Streptococcus pyogenes serotype M1, UniProt P10520); assay: viability-normalized secreted streptokinase activity reduction – plasminogen activation absorbance, OD405, dose response (AID 1914); type: functional, Streptococcus pyogenes M1 GAS;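 further: secreted streptokinase activity via plasminogen activation per viability signal from cell pellet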
# T3 sequence (P10520 whole entry): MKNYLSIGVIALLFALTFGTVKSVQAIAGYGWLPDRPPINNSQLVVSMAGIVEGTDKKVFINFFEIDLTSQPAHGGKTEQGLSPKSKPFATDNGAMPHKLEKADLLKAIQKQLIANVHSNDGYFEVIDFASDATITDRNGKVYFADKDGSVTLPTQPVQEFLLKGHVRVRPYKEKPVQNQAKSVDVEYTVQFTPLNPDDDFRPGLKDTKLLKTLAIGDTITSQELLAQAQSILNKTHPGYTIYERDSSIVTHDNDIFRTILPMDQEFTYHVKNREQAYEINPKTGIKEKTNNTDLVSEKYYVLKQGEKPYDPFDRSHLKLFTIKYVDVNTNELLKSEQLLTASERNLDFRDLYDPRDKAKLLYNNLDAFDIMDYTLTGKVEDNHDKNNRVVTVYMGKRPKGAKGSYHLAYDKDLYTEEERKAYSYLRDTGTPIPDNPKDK
smiles,measurement,setting,value
Cc1cccc(NC2(C(F)(F)F)N=C3SCCN3C2=O)n1 (centres undefined),IC50,[1],> 66 µM (inactive)
same,IC50,[2],> 66 µM (inactive)
c1csc(-c2nnsc2-c2nc3ccccc3[nH]2)c1,EC50,[3],> 195 µM (not active)
Cc1cccc(CC(=O)N2CCN=C2SCc2ccc([N+](=O)[O-])cc2)c1,IC50,[1],> 66 µM (inactive)
same,IC50,[2],> 66 µM (inactive)
Cc1cc(C)cc(NC(S)=Nc2ccc(Cl)c(Cl)c2)c1,IC50,[1],> 66 µM (inactive)
same,IC50,[2],> 66 µM (inactive)
CC(=O)C1C(c2ccc(Cl)cc2)NC(=O)NC1(O)C(F)(F)F (centres undefined),EC50,[4],> 112 µM (not active)
same,EC50,[5],> 112 µM (not active)
COc1ccc(Cl)cc1NC(=O)Nc1cc(C)on1,EC50,[4],> 112 µM (not active)
same,EC50,[5],> 112 µM (not active)
Cc1ccccc1OCC(=O)Nc1ccc2c(c1)C(=O)N(CCC(=O)O)C2=O,EC50,[3],32.6 µM (active)
O=C1OC(NC(=O)c2ccccc2)C(n2cc(CO)nn2)=C1Cl (centres undefined),EC50,[3],35.7 µM (active)
Cc1c(C(=O)N2CCCC2)sc(NC(=O)c2cccc(Cl)c2)c1C#N,EC50,[4],> 112 µM (not active)
same,EC50,[5],> 112 µM (not active)
COc1ccc(OCC(=O)N2CCN(c3cccc(C(F)(F)F)c3)CC2)cc1,EC50,[3],> 195 µM (not active)
COC(=O)c1[nH]c2ccccc2c1NC(=O)CN1CCN(C(=O)c2ccco2)CC1,EC50,[4],> 112 µM (not active)
same,EC50,[5],> 112 µM (not active)
COc1ccc(C(=O)NC(=S)NCCO)cc1Br,EC50,[3],> 195 µM (not active)
CC(C)c1nnc(SCC(=O)NCCC2=CCCCC2)n1N,IC50,[1],> 66 µM (inactive)
same,IC50,[2],> 66 µM (inactive)
COCCn1c(SCC(=O)NCC2CCCO2)nc2c(c1=O)SCC2 (centres undefined),IC50,[1],> 66 µM (inactive)
same,IC50,[2],> 66 µM (inactive)
Cc1cc(NC(=O)CSc2nccn2-c2cccc(Cl)c2)no1,IC50,[1],> 66 µM (inactive)
same,IC50,[2],> 66 µM (inactive)
Oc1ccc[n+](CCCCC[n+]2cccc(O)c2)c1,EC50,[4],> 112 µM (not active)
same,EC50,[5],19 µM (active)
CC1(Cc2ccc(OC(F)(F)F)cc2)C(=O)Nc2ccc(S(=O)(=O)NC3CCCCC3)cc21 (centres undefined),AC50,Paired box protein Pax-8,9.35 µM (active)
COc1cccc(S(=O)(=O)N(C)C[C@H]2OCc3ccccc3-c3c(n(C)c4ccccc34)C(=O)N([C@@H](C)CO)C[C@H]2C)c1,AC50,Paired box protein Pax-8,6.16 µM (active)
C[C@H](CO)N1C[C@H](C)[C@@H](CN(C)CC2CCCCC2)Oc2ccc(NC(=O)Nc3ccc4c(c3)OCO4)cc2CC1=O,AC50,Paired box protein Pax-8,11 µM (active)
COC(=O)c1sccc1N/N=C/c1ccc(OC)c(OC)c1OC,EC50,[6],87.4 µM (active)
same,EC50,[7],9.96 µM (active)
same,EC50,H4,40.6 µM (active)
O=C(c1ccccc1)c1cc2ccc(O)cc2oc1=O,EC50,[8],8.12 µM (active)
same,EC50,Streptococcus,18.5 µM (active)
same,EC50,[4],1.14 µM (active)
same,EC50,[5],< 0.701 µM (active)
same,EC50,Streptokinase A,> 150 µM (not active)
CC(=O)Nc1c(I)c(NC(C)=O)c(I)c(C(=O)O)c1I [DIATRIZOATE MEGLUMINE],EC50,[3],> 195 µM (not active)
